One assay deals with hSERT (Homo sapiens, UniProt P31645). The assay is described as follows: hSERT membrane radioligand binding assay (3H-citalopram), Assay 1. The settings on record: SERT pKi, hSERT HEK-293 membranes, 1.0 nM 3H-citalopram; values given as lower bounds.
The target in another assay is hNET (Homo sapiens, UniProt P23975). Nature of the assay: hNET membrane radioligand binding assay (3H-nisoxetine), Assay 1.
Chain of hNET (P23975 whole entry): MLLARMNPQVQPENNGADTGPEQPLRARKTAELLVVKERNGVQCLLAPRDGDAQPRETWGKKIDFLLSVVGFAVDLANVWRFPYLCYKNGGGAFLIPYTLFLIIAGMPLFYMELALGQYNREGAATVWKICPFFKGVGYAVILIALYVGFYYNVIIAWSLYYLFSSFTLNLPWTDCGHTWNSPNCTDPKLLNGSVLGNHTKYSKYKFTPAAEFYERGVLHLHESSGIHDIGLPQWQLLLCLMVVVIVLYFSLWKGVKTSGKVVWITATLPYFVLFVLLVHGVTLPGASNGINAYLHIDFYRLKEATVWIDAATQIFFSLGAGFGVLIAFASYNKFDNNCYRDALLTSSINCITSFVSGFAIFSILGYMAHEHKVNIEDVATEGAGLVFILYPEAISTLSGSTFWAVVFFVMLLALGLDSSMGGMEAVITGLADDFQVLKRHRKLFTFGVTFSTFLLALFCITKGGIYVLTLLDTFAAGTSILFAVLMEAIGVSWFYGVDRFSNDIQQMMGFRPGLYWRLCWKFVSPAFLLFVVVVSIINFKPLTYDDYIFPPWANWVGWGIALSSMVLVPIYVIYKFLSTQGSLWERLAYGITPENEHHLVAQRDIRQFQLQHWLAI

Chain of hSERT (P31645 whole entry): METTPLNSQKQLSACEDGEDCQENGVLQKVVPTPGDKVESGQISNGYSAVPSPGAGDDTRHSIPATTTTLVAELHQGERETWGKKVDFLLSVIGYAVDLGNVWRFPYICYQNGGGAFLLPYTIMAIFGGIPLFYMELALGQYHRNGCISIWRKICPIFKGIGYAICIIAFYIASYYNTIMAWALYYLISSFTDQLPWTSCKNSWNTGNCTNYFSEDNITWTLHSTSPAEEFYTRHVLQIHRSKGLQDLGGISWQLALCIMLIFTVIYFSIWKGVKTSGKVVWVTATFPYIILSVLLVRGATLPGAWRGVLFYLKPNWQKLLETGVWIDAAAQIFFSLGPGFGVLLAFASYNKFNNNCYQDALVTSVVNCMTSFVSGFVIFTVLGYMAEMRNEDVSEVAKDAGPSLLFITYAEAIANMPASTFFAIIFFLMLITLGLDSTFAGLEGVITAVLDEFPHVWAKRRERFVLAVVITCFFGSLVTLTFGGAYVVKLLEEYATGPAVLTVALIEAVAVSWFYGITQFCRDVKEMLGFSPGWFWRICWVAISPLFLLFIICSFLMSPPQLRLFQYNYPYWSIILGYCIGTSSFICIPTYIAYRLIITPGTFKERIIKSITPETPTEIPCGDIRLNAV

For the compound `CC[C@@H](Oc1ccc(Cl)cc1Cl)[C@@H]1CCNC1` [Example 2-33, (R)-3-[(R)-1-(2,4-Dichlorophenoxy)propyl]pyrrolidine], the Ki on hSERT was at most 10 nM; at hNET it was at most 100 nM.
As for `CC[C@H](Oc1c(F)c(F)cc(F)c1F)[C@H]1CCNC1` [Example 2-56, (S)-3-[(S)-1-(2,3,5,6-Tetrafluorophenoxy)propyl]pyrrolidine], the Ki is at most 100 nM on hSERT and at most 10 nM on hNET.
On to `Cc1cc(Cl)cc(C)c1O[C@@H](C1CC1)[C@H]1CCNC1` [Example 16-82, (S)-3-[(S)-(4-Chloro-2,6-dimethylphenoxy)cyclopropylmethyl]pyrrolidine], for which the Ki on hSERT was at most 10 nM; at hNET, at most 100 nM.
In the case of `Clc1ccc(O[C@H](C2CC2)[C@H]2CCNC2)c(Cl)c1` [Example 16-20, (S)-3-[(R)cyclopropyl-(2,4-dichlorophenoxy)methyl]pyrrolidine], the Ki on hSERT was at most 10 nM; on hNET, at most 100 nM.
On to `CCC[C@@H](Oc1ccc(Cl)cc1Cl)[C@H]1CCNC1` [Example 4-29, (S)-3-[(R)-1-(2,4-Dichlorophenoxy)butyl]pyrrolidine], for which the results for the Ki at hSERT and at hNET were at most 10 nM and at most 100 nM, respectively.
Regarding `CC[C@H](Oc1ccc(F)c(F)c1F)[C@H]1CCNC1` [Example 2-50, (S)-3-[(S)-1-(2,3,4-Trifluorophenoxy)propyl]pyrrolidine], the Ki at hSERT is at most 10 nM; at hNET, at most 100 nM.
Take `CCC[C@H](Oc1ccc(C)cc1Cl)[C@@H]1CCNC1` [Example 4-38, (R)-3-[(S)-1-(2-Chloro-4-methylphenoxy)butyl]pyrrolidine]: the results for the inhibition constant Ki at hSERT and on hNET were at most 10 nM and at most 100 nM, respectively.
In the case of `CCC[C@H](Oc1ccc(Cl)cc1C(F)(F)F)[C@H]1CCNC1` [Example 4-64, (S)-3-[(S)-1-(4-Chloro-2-trifluoromethylphenoxy)butyl]pyrrolidine], the Ki at hSERT and at hNET was at most 10 nM throughout.
Regarding `CCC[C@H](Oc1cccc(Cl)c1C(F)(F)F)[C@@H]1CCNC1` [Example 4-70, (R)-3-[(S)-1-(3-Chloro-2-trifluoromethylphenoxy)butyl]pyrrolidine], the Ki at hSERT was at most 10 nM; at hNET, at most 100 nM.
As for `CC[C@H](Oc1ccccc1F)[C@H]1CCNC1` [Example 2-46, (S)-3-[(S)-1-(2-Fluorophenoxy)propyl]pyrrolidine], the Ki at hSERT is at most 100 nM; on hNET it was at most 10 nM.
As for `Clc1ccc(O[C@@H](C2CC2)[C@H]2CCNC2)c2ccccc12` [Example 23-2, (S)-3-[(S)-(4-Chloronaphthalen-1-yloxy)cyclopropylmethyl]pyrrolidine], the Ki at hSERT is at most 100 nM; on hNET, at most 10 nM.
With `C=CC[C@@H](Oc1ccc(Cl)cc1C)[C@H]1CCNC1` [Example 25-2, (S)-3-[(R)-1-(4-Chloro-2-methylphenoxy)but-3-enyl]pyrrolidine], the inhibition constant (Ki) on hSERT was at most 10 nM; at hNET it was at most 100 nM.
As for `Fc1cc(Cl)cc(Cl)c1O[C@@H](C1CC1)[C@H]1CCNC1` [Example 16-75, (S)-3-[(S)cyclopropyl-(2,4-dichloro-6-fluorophenoxy)methyl]pyrrolidine], the Ki at hSERT and on hNET was at most 10 nM in each case.
Regarding `CC(C)C(Oc1cccc(F)c1)C1CCNC1` (centres unmarked) [Example 6-55, 3-[1-(3-Fluorophenoxy)-2-methylpropyl]pyrrolidine], the Ki at hSERT and on hNET was at most 100 nM throughout.
For `Cc1ccc(O[C@H](C2CC2)[C@@H]2CCNC2)c(C)c1` [Example 16-27, (R)-3-[(R)cyclopropyl-(2,4-dimethylphenoxy)-methyl]pyrrolidine], the Ki at hSERT was at most 10 nM; on hNET, at most 100 nM.
For `CC(C)[C@@H](Oc1ccc(Cl)cc1)[C@H]1CCNC1` [Example 6-76, (S)-3-[(R)-1-(4-Chlorophenoxy)-2-methylpropyl]pyrrolidine], in that order: at most 10 nM and at most 100 nM.

The values above are taken from patent publication US7994209B2, “3-phenoxymethylpyrrolidine compounds” (Theravance, Inc., priority 2009, dated 2011).
